Experimental data reported in PMC6401476, “The Evolution of SlyA/RovA Transcription Factors from Repressors to Countersilencers in Enterobacteriaceae” (mBio, 2019).

Columns and labels:
SlyA [1] = target: T1, SlyA (Salmonella enterica, UniProt P40676); test: intrinsic tryptophan fluorescence quenching; 1H, […]-TROSY NMR; type: binding
T1 construct: His-SlyA (N-terminal 6×His-tagged)

SlyA [2] = target: T1, SlyA; test: crystal structure at […] Å; 1H, […]-TROSY NMR; supported by in vitro transcription; type: binding
[3] = target: the molecule itself; test: crystal structure; His-SlyA co-crystallised with 75 mM sodium salicylate; sitting-drop vapor diffusion, room temperature; 20% PEG 400, 10% glycerol, 0.1 M phosphate-citrate buffer pH 4.2, 0.2 M ammonium sulfate; space group P21212, two SlyA molecules in the asymmetric unit, each dimer completed by space group symmetry

T1 sequence (P40676 whole entry): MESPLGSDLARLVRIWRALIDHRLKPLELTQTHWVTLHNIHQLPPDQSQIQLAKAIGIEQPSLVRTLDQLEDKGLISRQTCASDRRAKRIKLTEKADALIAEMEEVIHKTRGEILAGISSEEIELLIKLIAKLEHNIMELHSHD

With `O=C(O)c1ccccc1` [benzoate] as the molecule, how does the Kd (SlyA [1]) read?
Its Kd is about 40 µM.

How did the “crystal structure at 2.3 Å; 1H,15N-TROSY NMR; supported by in vitro transcriptio” value (SlyA [2]) turn out when `O=C(O)c1ccccc1O` [salicylate] was run?
Its value is “The crystal structure of the SlyA dimer with salicylate bound at sites I and II was determined”.

B1: SlyA of Salmonella enterica serovar Typhimurium (His-SlyA) (natural protein)
chain: ESPLGSDLARLVRIWRALIDHRLKPLELTQTHWVTLHNIHQLPPDQSQIQLAKAIGIEQPSLVRTLDQLEDKGLISRQTCASDRRAKRIKLTEKADALIAEMEEVIHKTRGEILAGISSEEIELLIKLIAKLEHNIMELHSHD
notes: SlyA, MarR family transcription factor, Salmonella enterica serovar Typhimurium; the tips of the wings are not seen in the model; Residue numbers in the text are based on an alignment of SlyA orthologs and are not in register with the numbers of the deposited PDB file 3DEU; Strains were built in the ATCC 14028s background; also called SlyASTM; SlyASTm; not shown: 6xHis, N-terminal, kept
For B1, which “stoichiometry N” value [3] is on record?
Its value is 2.
